Assays:
[1] = system: Tartrate Resistant Acid Phosphatase (TRAP) activity in RAW-OC cells; format: cell-based, mouse
MDA-MB-231 cells = format: cell-based, human
MCF-7 cells = format: cell-based

| Compound | activity of TRAP [1] | cell proliferation (BrdU) (MDA-MB-231 cells) | effect on proliferation promoting activity of 17β-estradiol and spike (MCF-7 cells) | effect on the estradiol- or spike-induced decrease in TRAP activity [1] |
| --- | --- | --- | --- | --- |
| C[C@]12CC[C@@H]3c4ccc(O)cc4CC[C@H]3[C@@H]1CC[C@@H]2O [17β-estradiol] | superimposable decrease | do not significantly affect cell proliferation |  |  |
| O=C(c1ccc(OCCN2CCCCC2)cc1)c1c(-c2ccc(O)cc2)sc2cc(O)ccc12 [Raloxifene, raloxifene] |  |  | blocked | blocked |

Reference: patent US20240180889A1, “COMBINATION THERAPY FOR COVID-19 VACCINATION” (priority 2021, published 2024)
